Results taken from ChEMBL document CHEMBL4818994, “Uncompetitive nanomolar dimeric indenoindole inhibitors of the human breast cancer resistance pump ABCG2” (Eur J Med Chem, 2021).

Biological target: Multidrug resistance-associated protein 1 (Homo sapiens, UniProt P33527)
Test: Inhibition of human MRP1 transfected in human HEK293 cells assessed as inhibition of Calcein-AM efflux measured after 30 mins by FACS Calibur cytometric analysis
Format: cell-based
Conditions: hek293, 0.5 h; call rule not given here

Multidrug resistance-associated protein 1, sequence (P33527 whole entry): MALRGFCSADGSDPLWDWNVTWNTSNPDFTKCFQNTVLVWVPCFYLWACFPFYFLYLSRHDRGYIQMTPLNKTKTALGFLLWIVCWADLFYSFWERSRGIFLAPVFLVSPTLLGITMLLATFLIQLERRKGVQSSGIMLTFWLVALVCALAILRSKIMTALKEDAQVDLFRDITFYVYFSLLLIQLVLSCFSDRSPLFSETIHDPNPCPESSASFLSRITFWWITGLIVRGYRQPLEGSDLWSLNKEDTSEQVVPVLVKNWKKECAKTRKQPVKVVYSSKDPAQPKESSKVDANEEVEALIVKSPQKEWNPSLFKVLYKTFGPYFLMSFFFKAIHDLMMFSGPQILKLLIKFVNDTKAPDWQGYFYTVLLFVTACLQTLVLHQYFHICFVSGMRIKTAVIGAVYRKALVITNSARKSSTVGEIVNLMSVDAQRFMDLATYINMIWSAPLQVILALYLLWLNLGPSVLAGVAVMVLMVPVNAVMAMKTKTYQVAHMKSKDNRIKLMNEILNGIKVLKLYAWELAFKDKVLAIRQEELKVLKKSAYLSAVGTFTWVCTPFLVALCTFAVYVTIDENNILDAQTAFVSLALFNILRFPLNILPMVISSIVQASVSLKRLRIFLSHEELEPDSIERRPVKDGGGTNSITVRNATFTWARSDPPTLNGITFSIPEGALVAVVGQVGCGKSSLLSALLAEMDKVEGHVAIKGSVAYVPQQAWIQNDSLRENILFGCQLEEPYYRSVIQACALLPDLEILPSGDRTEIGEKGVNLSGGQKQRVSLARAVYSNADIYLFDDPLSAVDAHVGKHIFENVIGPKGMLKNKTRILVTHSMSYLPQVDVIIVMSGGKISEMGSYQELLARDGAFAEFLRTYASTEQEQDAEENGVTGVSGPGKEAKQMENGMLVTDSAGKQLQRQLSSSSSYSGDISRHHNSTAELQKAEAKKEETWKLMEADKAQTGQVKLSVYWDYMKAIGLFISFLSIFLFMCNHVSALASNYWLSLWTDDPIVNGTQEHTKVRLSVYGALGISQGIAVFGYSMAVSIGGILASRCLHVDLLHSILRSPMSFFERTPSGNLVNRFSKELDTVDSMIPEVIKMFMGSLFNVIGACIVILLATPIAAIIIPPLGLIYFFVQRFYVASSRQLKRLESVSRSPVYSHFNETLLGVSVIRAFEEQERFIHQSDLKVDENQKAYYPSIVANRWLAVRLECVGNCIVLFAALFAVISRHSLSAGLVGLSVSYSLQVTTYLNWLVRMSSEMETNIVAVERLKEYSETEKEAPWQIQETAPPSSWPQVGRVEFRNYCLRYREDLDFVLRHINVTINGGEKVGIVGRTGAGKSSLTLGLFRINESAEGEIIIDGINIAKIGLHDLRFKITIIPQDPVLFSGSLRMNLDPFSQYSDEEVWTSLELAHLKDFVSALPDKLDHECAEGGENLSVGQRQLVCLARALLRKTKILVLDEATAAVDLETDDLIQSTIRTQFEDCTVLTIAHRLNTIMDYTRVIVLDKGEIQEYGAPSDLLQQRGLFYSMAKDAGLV

Q: Which “inhibition (INH)” value does the source give for COc1cccc(CCn2c3c(c4c(OCCCCOc5cccc6c5c5c(n6CCc6cccc(OC)c6)-c6ccccc6C5=O)cccc42)C(=O)c2ccccc2-3)c1 here?
A: Its value is “Not Active”.

Q: Which “inhibition (INH)” value does the source give for COc1cccc(CCn2c3c(c4c(OCCOc5cccc6c5c5c(n6CCc6cccc(OC)c6)-c6ccccc6C5=O)cccc42)C(=O)c2ccccc2-3)c1 here?
A: Its value is “Not Active”.

Q: Which “inhibition (INH)” value does the source give for CC1CC(=O)c2c3c(n(CCc4ccccc4)c2C1)-c1cc(OCCOc2ccc4c(c2)-c2c(c5c(n2CCc2ccccc2)CC(C)CC5=O)C4=O)ccc1C3=O (configuration not stated) here?
A: The value was “Not Active”.

System: ABCG2
Test: Therapeutic ratio of IG50 for growth inhibition of human HEK293 cells overexpressing human ABCG2 to IC50 for inhibition of human ABCG2 expressed in human HEK293 cells
Format: toxicity, cell-based
Conditions: not given

Q: For COc1cccc(CCn2c3c(c4c(OCCOc5ccc6c(c5)-c5c(c7c(n5CCc5ccccc5)CC(C)CC7=O)C6=O)cccc42)C(=O)c2ccccc2-3)c1 (configuration not stated), which selectivity ratio is on record?
A: The selectivity ratio was 3250.

Q: For COc1cccc(CCn2c3c(c4c(OCCCCOc5cccc6c5c5c(n6CCc6cccc(OC)c6)-c6ccccc6C5=O)cccc42)C(=O)c2ccccc2-3)c1, which selectivity ratio is on record?
A: The selectivity ratio was 2160.

Q: For CC1CC(=O)c2c3c(n(CCc4ccccc4)c2C1)-c1cc(OCCOc2ccc4c(c2)-c2c(c5c(n2CCc2ccccc2)CC(C)CC5=O)C4=O)ccc1C3=O (configuration not stated), which selectivity ratio is on record?
A: The selectivity ratio was 758.

System: not listed separately
Test: Growth inhibition of human HEK293 cells overexpressing human ABCG2 after 72 hrs by MTT assay
Format: ADME, cell-based
Conditions: read-out: IG50

Q: With COc1cccc(CCn2c3c(c4c(OCCOc5ccc6c(c5)-c5c(c7c(n5CCc5ccccc5)CC(C)CC7=O)C6=O)cccc42)C(=O)c2ccccc2-3)c1 (configuration not stated) as the compound, how does the GI50 at 72 h read?
A: The GI50 at 72 h was 221000 nM.

Q: With COc1cccc(CCn2c3c(c4c(OCCCCOc5cccc6c5c5c(n6CCc6cccc(OC)c6)-c6ccccc6C5=O)cccc42)C(=O)c2ccccc2-3)c1 as the compound, how does the GI50 at 72 h read?
A: The GI50 at 72 h was 51800 nM.

Q: With COc1cccc(CCn2c3c(c4c(OCCOc5cccc6c5c5c(n6CCc6cccc(OC)c6)-c6ccccc6C5=O)cccc42)C(=O)c2ccccc2-3)c1 as the compound, how does the GI50 at 72 h read?
A: The GI50 at 72 h was > 100000 nM.

Q: Which GI50 at 72 h does the source give for CC1CC(=O)c2c3c(n(CCc4ccccc4)c2C1)-c1cc(OCCOc2ccc4c(c2)-c2c(c5c(n2CCc2ccccc2)CC(C)CC5=O)C4=O)ccc1C3=O (configuration not stated) here?
A: The GI50 at 72 h was 242000 nM.

Biological target: T1, Broad substrate specificity ATP-binding cassette transporter ABCG2 (Homo sapiens, UniProt Q9UNQ0)
T1 sequence (Q9UNQ0 whole entry): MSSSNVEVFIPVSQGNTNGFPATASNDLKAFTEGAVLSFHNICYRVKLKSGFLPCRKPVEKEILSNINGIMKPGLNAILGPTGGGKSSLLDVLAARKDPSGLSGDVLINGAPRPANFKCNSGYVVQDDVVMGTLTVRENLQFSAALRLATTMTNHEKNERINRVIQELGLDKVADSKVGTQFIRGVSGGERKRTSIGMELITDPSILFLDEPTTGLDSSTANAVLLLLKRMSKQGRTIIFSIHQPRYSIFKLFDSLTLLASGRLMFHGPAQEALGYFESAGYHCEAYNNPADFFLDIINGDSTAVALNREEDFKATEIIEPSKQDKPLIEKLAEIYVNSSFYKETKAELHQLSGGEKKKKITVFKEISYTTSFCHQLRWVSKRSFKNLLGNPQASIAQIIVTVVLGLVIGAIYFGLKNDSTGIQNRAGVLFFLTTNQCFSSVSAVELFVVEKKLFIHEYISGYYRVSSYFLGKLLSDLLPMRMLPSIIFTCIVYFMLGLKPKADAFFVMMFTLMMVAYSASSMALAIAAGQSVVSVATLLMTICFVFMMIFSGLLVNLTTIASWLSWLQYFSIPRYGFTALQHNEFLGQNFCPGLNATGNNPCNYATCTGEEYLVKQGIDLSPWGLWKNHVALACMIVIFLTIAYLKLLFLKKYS
Test: Mixed inhibition of human ABCG2 transfected in human HEK293 cells assessed as Ki2 for inhibition of mitoxantrone efflux measured after 30 mins by FACS Calibur cytometric analysis
Format: cell-based
Conditions: not given

Q: Which Ki does the source give for CC1CC(=O)c2c3c(n(CCc4ccccc4)c2C1)-c1ccccc1C3=O (configuration not stated) here?
A: The Ki was 843 nM.

Biological target: T2, ATP-dependent translocase ABCB1 (Homo sapiens, UniProt P08183)
Test: Inhibition of human P-gp1 transfected in mouse NIH3T3 cells assessed as inhibition of Calcein-AM efflux measured after 30 mins by FACS Calibur cytometric analysis
Format: cell-based
Conditions: nih3t3, 0.5 h

T2 sequence (P08183 whole entry): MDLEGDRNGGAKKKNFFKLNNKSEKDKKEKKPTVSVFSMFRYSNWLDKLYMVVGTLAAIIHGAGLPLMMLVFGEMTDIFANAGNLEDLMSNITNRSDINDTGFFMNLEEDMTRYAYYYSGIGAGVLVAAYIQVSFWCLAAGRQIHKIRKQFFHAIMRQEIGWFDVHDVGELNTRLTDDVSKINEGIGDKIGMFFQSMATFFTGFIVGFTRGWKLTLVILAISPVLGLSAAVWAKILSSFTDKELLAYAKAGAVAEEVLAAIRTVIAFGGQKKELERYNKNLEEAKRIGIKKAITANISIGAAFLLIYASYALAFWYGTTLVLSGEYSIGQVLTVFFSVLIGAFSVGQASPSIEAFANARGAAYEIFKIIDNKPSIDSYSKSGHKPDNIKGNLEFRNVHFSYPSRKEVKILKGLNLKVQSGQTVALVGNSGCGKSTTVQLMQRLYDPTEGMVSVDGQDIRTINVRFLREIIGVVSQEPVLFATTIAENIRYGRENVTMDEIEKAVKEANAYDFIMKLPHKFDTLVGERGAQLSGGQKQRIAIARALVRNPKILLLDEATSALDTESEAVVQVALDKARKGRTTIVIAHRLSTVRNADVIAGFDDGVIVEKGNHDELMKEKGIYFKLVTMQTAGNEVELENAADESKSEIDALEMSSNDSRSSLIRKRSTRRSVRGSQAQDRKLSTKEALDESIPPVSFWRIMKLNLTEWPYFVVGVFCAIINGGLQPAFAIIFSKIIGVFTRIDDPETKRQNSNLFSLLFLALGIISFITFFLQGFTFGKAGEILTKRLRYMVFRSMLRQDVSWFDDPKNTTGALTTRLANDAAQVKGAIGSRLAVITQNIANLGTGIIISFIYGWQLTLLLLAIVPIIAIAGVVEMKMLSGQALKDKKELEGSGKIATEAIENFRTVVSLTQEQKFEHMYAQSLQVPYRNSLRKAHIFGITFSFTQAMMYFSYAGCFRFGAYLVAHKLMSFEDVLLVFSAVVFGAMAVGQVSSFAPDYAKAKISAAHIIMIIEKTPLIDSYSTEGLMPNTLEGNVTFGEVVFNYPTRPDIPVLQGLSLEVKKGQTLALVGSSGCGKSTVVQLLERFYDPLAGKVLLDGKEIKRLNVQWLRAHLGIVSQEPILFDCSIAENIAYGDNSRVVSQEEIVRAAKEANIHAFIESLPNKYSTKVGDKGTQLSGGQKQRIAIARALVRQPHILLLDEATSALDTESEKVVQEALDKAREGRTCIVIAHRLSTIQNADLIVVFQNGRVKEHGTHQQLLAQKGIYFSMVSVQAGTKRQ

Q: Which “inhibition (INH)” value does the source give for COc1cccc(CCn2c3c(c4c(OCCCCOc5cccc6c5c5c(n6CCc6cccc(OC)c6)-c6ccccc6C5=O)cccc42)C(=O)c2ccccc2-3)c1 here?
A: The value was “Not Active”.

Q: For COc1cccc(CCn2c3c(c4c(OCCOc5cccc6c5c5c(n6CCc6cccc(OC)c6)-c6ccccc6C5=O)cccc42)C(=O)c2ccccc2-3)c1, which “inhibition (INH)” value is on record?
A: Its value is “Not Active”.

Q: Which “inhibition (INH)” value does the source give for CC1CC(=O)c2c3c(n(CCc4ccccc4)c2C1)-c1cc(OCCOc2ccc4c(c2)-c2c(c5c(n2CCc2ccccc2)CC(C)CC5=O)C4=O)ccc1C3=O (configuration not stated) here?
A: The value was “Not Active”.

Biological target: T1, Broad substrate specificity ATP-binding cassette transporter ABCG2
Test: Inhibition of human ABCG2 transfected in human HEK293 cells assessed as inhibition of mitoxantrone efflux measured after 30 mins by FACS Calibur cytometric analysis
Format: cell-based
Conditions: not given

Q: For CC1CC(=O)c2c3c(n(CCc4ccccc4)c2C1)-c1ccccc1C3=O (configuration not stated), which IC50 is on record?
A: The IC50 was 768 nM.

Q: With COc1cccc(CCn2c3c(c4c(OCCOc5ccc6c(c5)-c5c(c7c(n5CCc5ccccc5)CC(C)CC7=O)C6=O)cccc42)C(=O)c2ccccc2-3)c1 (configuration not stated) as the compound, how does the IC50 read?
A: The IC50 was 68 nM.

Q: For COc1cccc(CCn2c3c(c4c(OCCCCOc5cccc6c5c5c(n6CCc6cccc(OC)c6)-c6ccccc6C5=O)cccc42)C(=O)c2ccccc2-3)c1, which IC50 is on record?
A: The IC50 was 24.1 nM.

Q: For COc1cccc(CCn2c3c(c4c(OCCOc5cccc6c5c5c(n6CCc6cccc(OC)c6)-c6ccccc6C5=O)cccc42)C(=O)c2ccccc2-3)c1, which IC50 is on record?
A: The IC50 was 38.4 nM.

Q: For CC1CC(=O)c2c3c(n(CCc4ccccc4)c2C1)-c1cc(OCCOc2ccc4c(c2)-c2c(c5c(n2CCc2ccccc2)CC(C)CC5=O)C4=O)ccc1C3=O (configuration not stated), which IC50 is on record?
A: Its IC50 is 319 nM.

Biological target: T1, Broad substrate specificity ATP-binding cassette transporter ABCG2
Test: Uncompetitive inhibition of human ABCG2 transfected in human HEK293 cells assessed as Ki2 for inhibition of mitoxantrone efflux measured after 30 mins by FACS Calibur cytometric analysis
Format: cell-based
Conditions: not given

Q: For COc1cccc(CCn2c3c(c4c(OCCCCOc5cccc6c5c5c(n6CCc6cccc(OC)c6)-c6ccccc6C5=O)cccc42)C(=O)c2ccccc2-3)c1, which Ki is on record?
A: Its Ki is 17 nM.

System: ABCG2
Test: Therapeutic ratio of IG50 for growth inhibition of human HEK293 cells to IC50 for inhibition of human ABCG2 expressed in human HEK293 cells
Format: toxicity, cell-based
Conditions: not given

Q: For COc1cccc(CCn2c3c(c4c(OCCOc5ccc6c(c5)-c5c(c7c(n5CCc5ccccc5)CC(C)CC7=O)C6=O)cccc42)C(=O)c2ccccc2-3)c1 (configuration not stated), which selectivity ratio is on record?
A: The selectivity ratio was 3250.

Q: With COc1cccc(CCn2c3c(c4c(OCCCCOc5cccc6c5c5c(n6CCc6cccc(OC)c6)-c6ccccc6C5=O)cccc42)C(=O)c2ccccc2-3)c1 as the compound, how does the selectivity ratio read?
A: The selectivity ratio was 3300.

Q: For COc1cccc(CCn2c3c(c4c(OCCOc5cccc6c5c5c(n6CCc6cccc(OC)c6)-c6ccccc6C5=O)cccc42)C(=O)c2ccccc2-3)c1, which selectivity ratio is on record?
A: Its selectivity ratio is ≥ 2630.

Q: Which selectivity ratio does the source give for CC1CC(=O)c2c3c(n(CCc4ccccc4)c2C1)-c1cc(OCCOc2ccc4c(c2)-c2c(c5c(n2CCc2ccccc2)CC(C)CC5=O)C4=O)ccc1C3=O (configuration not stated) here?
A: Its selectivity ratio is 758.

System: not listed separately
Test: Growth inhibition of human HEK293 cells after 72 hrs by MTT assay
Format: cell-based
Conditions: read-out: IG50

Q: With COc1cccc(CCn2c3c(c4c(OCCOc5ccc6c(c5)-c5c(c7c(n5CCc5ccccc5)CC(C)CC7=O)C6=O)cccc42)C(=O)c2ccccc2-3)c1 (configuration not stated) as the compound, how does the GI50 at 72 h read?
A: The GI50 at 72 h was 221000 nM.

Q: For COc1cccc(CCn2c3c(c4c(OCCCCOc5cccc6c5c5c(n6CCc6cccc(OC)c6)-c6ccccc6C5=O)cccc42)C(=O)c2ccccc2-3)c1, which GI50 at 72 h is on record?
A: Its GI50 at 72 h is 79600 nM.

Q: Which GI50 at 72 h does the source give for COc1cccc(CCn2c3c(c4c(OCCOc5cccc6c5c5c(n6CCc6cccc(OC)c6)-c6ccccc6C5=O)cccc42)C(=O)c2ccccc2-3)c1 here?
A: Its GI50 at 72 h is 917000 nM.

Q: With CC1CC(=O)c2c3c(n(CCc4ccccc4)c2C1)-c1cc(OCCOc2ccc4c(c2)-c2c(c5c(n2CCc2ccccc2)CC(C)CC5=O)C4=O)ccc1C3=O (configuration not stated) as the compound, how does the GI50 at 72 h read?
A: Its GI50 at 72 h is 242000 nM.

Biological target: T1, Broad substrate specificity ATP-binding cassette transporter ABCG2
Test: Mixed inhibition of human ABCG2 transfected in human HEK293 cells assessed as Ki1 for inhibition of mitoxantrone efflux measured after 30 mins by FACS Calibur cytometric analysis
Format: cell-based
Conditions: not given

Q: With CC1CC(=O)c2c3c(n(CCc4ccccc4)c2C1)-c1ccccc1C3=O (configuration not stated) as the compound, how does the Ki read?
A: Its Ki is 323 nM.

Biological target: T1, Broad substrate specificity ATP-binding cassette transporter ABCG2
Test: Mixed inhibition of human ABCG2 transfected in human HEK293 cells assessed as Ki2 for inhibition of Hoechst33342 efflux measured after 30 mins by FACS Calibur cytometric analysis
Format: cell-based
Conditions: not given

Q: With COc1cccc(CCn2c3c(c4c(OCCCCOc5cccc6c5c5c(n6CCc6cccc(OC)c6)-c6ccccc6C5=O)cccc42)C(=O)c2ccccc2-3)c1 as the compound, how does the Ki read?
A: The Ki was 29 nM.

Biological target: T1, Broad substrate specificity ATP-binding cassette transporter ABCG2
Test: Mixed inhibition of human ABCG2 transfected in human HEK293 cells assessed as Ki1 for inhibition of Hoechst33342 efflux measured after 30 mins by FACS Calibur cytometric analysis
Format: cell-based
Conditions: not given

Q: With COc1cccc(CCn2c3c(c4c(OCCCCOc5cccc6c5c5c(n6CCc6cccc(OC)c6)-c6ccccc6C5=O)cccc42)C(=O)c2ccccc2-3)c1 as the compound, how does the Ki read?
A: The Ki was 113 nM.

Biological target: T2, ATP-dependent translocase ABCB1
Test: Inhibition of human P-gp1 transfected in mouse NIH3T3 cells assessed as inhibition of Rhodamine123 efflux measured after 30 mins by FACS Calibur cytometric analysis
Format: cell-based
Conditions: nih3t3, 0.5 h

Q: For COc1cccc(CCn2c3c(c4c(OCCOc5ccc6c(c5)-c5c(c7c(n5CCc5ccccc5)CC(C)CC7=O)C6=O)cccc42)C(=O)c2ccccc2-3)c1 (configuration not stated), which “inhibition (INH)” value is on record?
A: Its value is “Active”.
